Results on eleven molecules are retold here after patent publication US20260022143A1, “Cyclic Peptide Inhibitors of IL-23” (JANSSEN PHARMACEUTICA NV, priority 2022, published 2026).

Structures are written as SMILES. Starred links: 1 amine or outer side, 2 acyl side, 3 side chain; linkers in the order of their positions; H or OH if unused. Positions of bridges follow the written chain, without caps; N, C: chain ends. Non-standard residues stand in square brackets, D forms with d. Residues, ends and D or L forms follow the SMILES beside them. *: point of attachment. Trp(7-(3-AcNH-Ph)) = CC(=O)Nc1cccc(-c2cccc3c(C[C@H](N)C(=O)O)c[nH]c23)c1; X51 = C[N+](C)(C)CCCc1cn(-c2ccc(C[C@H](N[*:1])C(=O)[*:2])cc2)nn1; Me3N+(CH2)2O(CH2)2O(CH2)2CO = C[N+](C)(C)CCOCCOCCC(=O)*; CH2CH2OCH2CH2OCH2CH2NMe3+ = C[N+](C)(C)CCOCCOCC*; Phe(4-N3) = [N-]=[N+]=Nc1ccc(C[C@H](N)C(=O)O)cc1; Trp(7-Me) = Cc1cccc2c(C[C@H](N)C(=O)O)c[nH]c12; Hexanoyl(6-NMe3+) = C[N+](C)(C)CCCCCC(=O)*; dLys(Me3) = C[N+](C)(C)CCCC[C@@H](N)C(=O)O; X83 = CN(CCC[N+](C)(C)CCCC[N+](C)(C)C)CC*; Decanoyl(3,6,9-trioxa) = COCCOCCOCC(=O)*; 3Pal(5-Me) = Cc1cncc(C[C@H](N)C(=O)O)c1; Dab(NMeAc) = CC(=O)N(C)CC[C@H](N)C(=O)O; CH2CH2OCH2CH2NMe3+ = C[N+](C)(C)CCOCC*; 2Nal = N[C@@H](Cc1ccc2ccccc2c1)C(=O)O; AEF = NCCOc1ccc(C[C@H](N)C(=O)O)cc1; X24 = C[N+](C)(CCN[*:1])CC(=O)[*:2]; dNMeY = CN[C@H](Cc1ccc(O)cc1)C(=O)O; X26 = C[N+](C)(C)CCCCc1cn(CC*)nn1; 3Pal = N[C@@H](Cc1cccnc1)C(=O)O; Lys(Me) = CNCCCC[C@H](N)C(=O)O; Pen = CC(C)(S)[C@H](N)C(=O)O; αMeK = C[C@](N)(CCCCN)C(=O)O; X85 = C[N+](C)(C)CCO/N=C/C*; Thp = NC1(C(=O)O)CCOCC1; X3 = C[N+](C)(C)CCCCC*; Sar = CNCC(=O)O

A short description of the series: Exposed Polar Surface Area (EPSA). In kind it is physicochemical. Conditions: SFC on Chirex 3014 column; sample 1 mM DMSO stock; read-out: EPSA. Put shortly: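 Chirex 3014 column, 35 °C, 4 mL/min; CO2/MeOH + 20 mM NH4 formate, 5→60% modifier at 20%/min. UV/MS detection. EPSA (Å^2) from retention time vs 8-standard calibration line; duplicates; 1 mM DMSO stock injected undiluted.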
As for `CC(=O)N[C@@H]1C(=O)N[C@@H](COCCOCC[N+](C)(C)C)C(=O)N[C@@H]([C@@H](C)O)C(=O)N[C@@H](Cc2c[nH]c3c(C)cccc23)C(=O)N[C@@H](CCCCN(C)C(C)=O)C(=O)N[C@H](C(=O)N[C@@H](Cc2ccc(OCCOCCOCC[N+](C)(C)C)cc2)C(=O)N[C@@H](Cc2ccc3ccccc3c2)C(=O)NC2(C(=O)N[C@@H](CCCCN(C)C(C)=O)C(=O)N[C@@H](CC(N)=O)C(=O)N[C@@H](Cc3cccnc3)C(=O)N(C)CC(=O)N(C)C)CCOCC2)C(C)(C)SSC1(C)C` [compound 365] (Ac-[Pen]S(CH2CH2OCH2CH2NMe3+)T[Trp(7-Me)][Lys(Me)](Ac)[Pen]Y(CH2CH2OCH2CH2OCH2CH2NMe3+)[2Nal][Thp][Lys(Me)](Ac)N[3Pal][Sar]-NMe2; disulfide 1-6), the EPSA was 150 A^2. With `CC(=O)NCCCC[C@@H]1NC(=O)[C@H](Cc2c[nH]c3c(C)cccc23)NC(=O)[C@H]([C@@H](C)O)NC(=O)[C@H](CC(N)=O)NC(=O)[C@@H](NC(C)=O)C(C)(C)SSC(C)(C)[C@@H](C(=O)N[C@@H](Cc2ccc(N=[N+]=[N-])cc2)C(=O)N[C@@H](Cc2ccc3ccccc3c2)C(=O)NC2(C(=O)N[C@@H](CCC(=O)O)C(=O)N[C@@H](CC(N)=O)C(=O)N[C@@H](Cc3cccnc3)C(=O)N(C)CC(N)=O)CCOCC2)NC1=O` [compound 435] (Ac-[Pen]NT[Trp(7-Me)]K(Ac)[Pen][Phe(4-N3)][2Nal][Thp]EN[3Pal][Sar]-NH2; disulfide 1-6 (inferred)), the EPSA amounted to 182 A^2. On to `CC(=O)N(C)CCCC[C@@H]1NC(=O)[C@H](Cc2c[nH]c3c(C)cccc23)NC(=O)[C@H]([C@@H](C)O)NC(=O)[C@H](CC(=O)N(C)C)NC(=O)[C@@H](NC(=O)CCOCCOCC[N+](C)(C)C)C(C)(C)SSC(C)(C)[C@@H](C(=O)N[C@@H](Cc2ccc(OC/C=N/OCC[N+](C)(C)C)cc2)C(=O)N[C@@H](Cc2ccc3ccccc3c2)C(=O)NC2(C(=O)N[C@@H](CCCCN(C)C(C)=O)C(=O)N[C@@H](CC(N)=O)C(=O)N[C@@H](Cc3cccnc3)C(=O)N(C)CC(=O)N(C)C)CCOCC2)NC1=O` [compound 305, cPEG3aCO-Pen(3)-N(N(Me)2)-T-7MeW-K(NMeAc)-Pen(3)-Y(OEOXlMECh)-2Nal-THP-K(NMeAc)-N-3Pya-Sar-CON(Me)2] ({Me3N+(CH2)2O(CH2)2O(CH2)2CO}-[Pen]D(NMe2)T[Trp(7-Me)][Lys(Me)](Ac)[Pen]Y(X85)[2Nal][Thp][Lys(Me)](Ac)N[3Pal][Sar]-NMe2; disulfide 1-6 (inferred)), for which the EPSA was 153 A^2.

For the molecule `CC(=O)NCCCC[C@@H]1NC(=O)[C@H](Cc2c[nH]c3c(C)cccc23)NC(=O)[C@H]([C@@H](C)O)NC(=O)[C@H](CC(N)=O)NC(=O)[C@@H](NC(C)=O)C(C)(C)SSC(C)(C)[C@@H](C(=O)N[C@@H](Cc2ccc(OCCN)cc2)C(=O)N[C@@H](Cc2ccc3ccccc3c2)C(=O)N[C@@](C)(CCCCN)C(=O)N[C@@H](CCCCNC(C)=O)C(=O)N[C@@H](CC(N)=O)C(=O)N[C@@H](Cc2c[nH]cn2)C(=O)N(C)[C@H](Cc2ccc(O)cc2)C(N)=O)NC1=O` [compound 8, MeCO-Pen(3)-N-T-7MeW-K(Ac)-Pen(3)-AEF-2Nal-aMeK-K(Ac)-N-H-NMeDTyr-CONH2] (Ac-[Pen]NT[Trp(7-Me)]K(Ac)[Pen][AEF][2Nal][αMeK]K(Ac)NH[dNMeY]-NH2; disulfide 1-6 (inferred)), the EPSA was 169 A^2.

Turning to `CC(=O)NCCCC[C@@H]1NC(=O)[C@H](Cc2c[nH]c3c(C)cccc23)NC(=O)[C@H]([C@@H](C)O)NC(=O)[C@H](CC(N)=O)NC(=O)[C@@H](NC(=O)CCCCC[N+](C)(C)C)C(C)(C)SSC(C)(C)[C@@H](C(=O)N[C@@H](Cc2ccc(OCCN)cc2)C(=O)N[C@@H](Cc2ccc3ccccc3c2)C(=O)NC2(C(=O)N[C@@H](CCCCNC(C)=O)C(=O)N[C@@H](CC(N)=O)C(=O)N[C@@H](Cc3cccnc3)C(=O)N(C)CC(N)=O)CCOCC2)NC1=O` [compound 89] ({Hexanoyl(6-NMe3+)}-[Pen]NT[Trp(7-Me)]K(Ac)[Pen][AEF][2Nal][Thp]K(Ac)N[3Pal][Sar]-NH2; disulfide 1-6 (inferred)), the EPSA stood at 160 A^2.

For `COCCOCCOCC(=O)NCC[N+](C)(C)CC(=O)N[C@@H]1C(=O)N[C@@H](CC(=O)N(C)C)C(=O)N[C@@H]([C@@H](C)O)C(=O)N[C@@H](Cc2c[nH]c3c(C)cccc23)C(=O)N[C@@H](CCCCN(C)C(C)=O)C(=O)N[C@H](C(=O)N[C@@H](Cc2ccc(OCCOCCOCC[N+](C)(C)C)cc2)C(=O)N[C@@H](Cc2ccc3ccccc3c2)C(=O)NC2(C(=O)N[C@@H](CCN(C)C(C)=O)C(=O)N[C@@H](CC(N)=O)C(=O)N[C@@H](Cc3cccnc3)C(=O)N(C)CC(=O)N(C)C)CCOCC2)C(C)(C)SSC1(C)C` [compound 197, mPEG3CO-SP6-Pen(3)-N(N(Me)2)-T-7MeW-K(NMeAc)-Pen(3)-APEG3F-2Nal-THP-Dab(NMeAc)-N-3Pya-Sar-CON(Me)2] ({Decanoyl(3,6,9-trioxa)}-[X24][Pen]D(NMe2)T[Trp(7-Me)][Lys(Me)](Ac)[Pen]Y(CH2CH2OCH2CH2OCH2CH2NMe3+)[2Nal][Thp][Dab(NMeAc)]N[3Pal][Sar]-NMe2; disulfide 2-7), the EPSA was 137 A^2. Then `CC(=O)N(C)CCCC[C@@H]1NC(=O)[C@H](Cc2c[nH]c3c(C)cccc23)NC(=O)[C@H]([C@@H](C)O)NC(=O)[C@H](CC(=O)N(C)C)NC(=O)[C@@H](NC(=O)CCOCCOCC[N+](C)(C)C)C(C)(C)SSC(C)(C)[C@@H](C(=O)N[C@@H](Cc2ccc(OCCN(C)CCC[N+](C)(C)CCCC[N+](C)(C)C)cc2)C(=O)N[C@@H](Cc2ccc3ccccc3c2)C(=O)NC2(C(=O)N[C@@H](CCCCN(C)C(C)=O)C(=O)N[C@@H](CC(N)=O)C(=O)N[C@@H](Cc3cccnc3)C(=O)N(C)CC(=O)N(C)C)CCOCC2)NC1=O` [compound 277, cPEG3aCO-Pen(3)-N(N(Me)2)-T-7MeW-K(NMeAc)-Pen(3)-AEF(SPD)-2Nal-THP-K(NMeAc)-N-3Pya-Sar-CON(Me)2] ({Me3N+(CH2)2O(CH2)2O(CH2)2CO}-[Pen]D(NMe2)T[Trp(7-Me)][Lys(Me)](Ac)[Pen]Y(X83)[2Nal][Thp][Lys(Me)](Ac)N[3Pal][Sar]-NMe2; disulfide 1-6), with 154 A^2; and `CC(=O)NCCCC[C@@H]1NC(=O)[C@H](Cc2c[nH]c3c(-c4cccc(NC(C)=O)c4)cccc23)NC(=O)[C@H]([C@@H](C)O)NC(=O)[C@H](CC(N)=O)NC(=O)[C@@H](NC(=O)[C@@H](CCCC[N+](C)(C)C)NC(C)=O)C(C)(C)SSC(C)(C)[C@@H](C(=O)N[C@@H](Cc2ccc(OCCCCC[N+](C)(C)C)cc2)C(=O)N[C@@H](Cc2ccc3ccccc3c2)C(=O)NC2(C(=O)N[C@@H](CCC(=O)O)C(=O)N[C@@H](CC(N)=O)C(=O)N[C@@H](Cc3cncc(C)c3)C(=O)N(C)CC(N)=O)CCOCC2)NC1=O` [compound 513, MeCO-k(Me)3-Pen(3)-N-T-7(3NAcPh)W-K(Ac)-Pen(3)-TMAPF-2Nal-THP-E-N-5MePyridinAla-Sar-CONH2] (Ac-[dLys(Me3)][Pen]NT[Trp(7-(3-AcNH-Ph))]K(Ac)[Pen]Y(X3)[2Nal][Thp]EN[3Pal(5-Me)][Sar]-NH2; disulfide 2-7), with 224 A^2. On to `CC(=O)NCCCC[C@@H]1NC(=O)[C@H](Cc2c[nH]c3c(C)cccc23)NC(=O)[C@H]([C@@H](C)O)NC(=O)[C@H](CC(N)=O)NC(=O)[C@@H](NC(=O)[C@@H](CCCC[N+](C)(C)C)NC(C)=O)C(C)(C)SSC(C)(C)[C@@H](C(=O)N[C@@H](Cc2ccc(OCCCCC[N+](C)(C)C)cc2)C(=O)N[C@@H](Cc2ccc3ccccc3c2)C(=O)NC2(C(=O)N[C@@H](CCCCNC(C)=O)C(=O)N[C@@H](CC(N)=O)C(=O)N[C@@H](Cc3cccnc3)C(=O)N(C)CC(N)=O)CCOCC2)NC1=O` [compound 450, MeCO-k(Me)3-Pen(3)-N-T-7MeW-K(Ac)-Pen(3)-TMAPF-2Nal-THP-K(Ac)-N-3Pya-Sar-CONH2] (Ac-[dLys(Me3)][Pen]NT[Trp(7-Me)]K(Ac)[Pen]Y(X3)[2Nal][Thp]K(Ac)N[3Pal][Sar]-NH2; disulfide 2-7), for which the EPSA was determined as 165 A^2.

With `CC(=O)N(C)CCCC[C@@H]1NC(=O)[C@H](Cc2c[nH]c3c(C)cccc23)NC(=O)[C@H]([C@@H](C)O)NC(=O)[C@H](CC(=O)N(C)C)NC(=O)[C@@H](NC(=O)CCOCCOCC[N+](C)(C)C)C(C)(C)SSC(C)(C)[C@@H](C(=O)N[C@@H](Cc2ccc(OCCn3cc(CCCC[N+](C)(C)C)nn3)cc2)C(=O)N[C@@H](Cc2ccc3ccccc3c2)C(=O)NC2(C(=O)N[C@@H](CCCCN(C)C(C)=O)C(=O)N[C@@H](CC(N)=O)C(=O)N[C@@H](Cc3cccnc3)C(=O)N(C)CC(=O)N(C)C)CCOCC2)NC1=O` [compound 284, cPEG3aCO-Pen(3)-N(N(Me)2)-T-7MeW-K(NMeAc)-Pen(3)-Y(OTzlTMA4)-2Nal-THP-K(NMeAc)-N-3Pya-Sar-CON(Me)2] ({Me3N+(CH2)2O(CH2)2O(CH2)2CO}-[Pen]D(NMe2)T[Trp(7-Me)][Lys(Me)](Ac)[Pen]Y(X26)[2Nal][Thp][Lys(Me)](Ac)N[3Pal][Sar]-NMe2; disulfide 1-6), the EPSA worked out at 151 A^2.

Turning to `CC(=O)NCCCC[C@@H]1NC(=O)[C@H](Cc2c[nH]c3c(C)cccc23)NC(=O)[C@H]([C@@H](C)O)NC(=O)[C@H](CC(N)=O)NC(=O)[C@@H](NC(=O)CCOCCOCC[N+](C)(C)C)C(C)(C)SSC(C)(C)[C@@H](C(=O)N[C@@H](Cc2ccc(-n3cc(CCC[N+](C)(C)C)nn3)cc2)C(=O)N[C@@H](Cc2ccc3ccccc3c2)C(=O)NC2(C(=O)N[C@@H](CCCCNC(C)=O)C(=O)N[C@@H](CC(N)=O)C(=O)N[C@@H](Cc3cccnc3)C(=O)N(C)CC(N)=O)CCOCC2)NC1=O` [compound 420, cPEG3aCO-Pen(3)-N-T-7MeW-K(Ac)-Pen(3)-F(4TzlTMA3)-2Nal-THP-K(Ac)-N-3Pya-Sar-CONH2] ({Me3N+(CH2)2O(CH2)2O(CH2)2CO}-[Pen]NT[Trp(7-Me)]K(Ac)[Pen][X51][2Nal][Thp]K(Ac)N[3Pal][Sar]-NH2; disulfide 1-6), the EPSA came out at 170 A^2.
